# Key:
# Assay type in all cases: in vivo
# Setaria viridis (SETVI) = assay: Test 1B glasshouse assay, post-emergence herbicidal activity against grassy weeds; details: 14 DAA
# Procedure: (§1) Biological Example 1B tests the herbicidal activity of“technical” compounds (i.e. compounds not previously formulated before the test), as the herbicides under test.
# (§2) An “instant formulation”, known as the “IF50”, containing 50 g/liter (i.e. 5% w/v) of the “technical” (i.e. unformulated) active ingredient (i.e. the herbicide under test), is prepared by dissolving the active ingredient in a mixture of organic solvents and emulsifier, details of which are provided in the Table below.
# (§3) This IF50 is mixed with a small, variable amount of acetone to aid dissolution, before addition of a 0.5% v/v aqueous solution of the adjuvant Adigor™ (an adjuvant containing rapeseed oil methyl ester, ethoxylated alcohols, and a mixture of heavy aromatic hydrocarbons, e.g. available from Syngenta), as the aqueous diluent, to form an aqueous spray solution which contains a predetermined concentration of the active ingredient (which varies depending on the application rate of the active ingredient to the plants) and 0.5% v/v of the adjuvant Adigor™. This aqueous spray solution is suitable for spraying onto plants.
# (§4) Seeds of a variety of test species are sown in standard soil in pots. After cultivation for 14 days under controlled conditions in a glasshouse (at 22/16° C., day/night; 16 hours light; 65% humidity), the plants are sprayed post-emergence with the above-mentioned aqueous spray solution containing inter alia the “technical” active ingredient (i.e. the herbicide under test) and the adjuvant Adigor™.
# (§5) The test plants are then grown on under controlled conditions in the glasshouse (at 22/16° C., day/night; 16 hours light; 65% humidity) and are watered twice daily. 14 days after application of the test herbicide, the test is evaluated visually for percentage phytotoxicity to the plant (where 100%=total damage to plant; 0%=no damage to plant).
# (§6) More specifically, post-emergence herbicidal activity (phytotoxicity) data, on certain tested grassy monocotyledonous weeds (and/or plants of the type Gramineae) and cereal crops in the glasshouse, are measured 14 days after application of the herbicide (14 DAA), typically for inter alia one or more of the following application rates: • (a) a post-emergence application rate of 60 g/ha of the test herbicide with or without 50 g/ha of cloquintocet-mexyl safener, and • (b) a post-emergence application rate of 90 g/ha of the test herbicide with 50 g/ha of cloquintocet-mexyl safener, and • (c) a post-emergence application rate of 120 g/ha of the test herbicide with 50 g/ha of cloquintocet-mexyl safener.
# (§7) The cloquintocet-mexyl, when used, is present in the formulation containing the herbicide under test dissolved in acetone plus IF50.
# (§8) The range of herbicide application rates tested sometimes includes application rates other than those shown above, and the rates can vary depending on the herbicide under test.
# (§9) Herbicidal activity (phytotoxicity) is evaluated visually, and an assessed percentage phytotoxicity score is given for each herbicidal application on each plant species (with 100%=total damage to plant; 0%=no damage to plant; the assessment is recorded in increments of 1%). Two replicates are made for each experiment, and the mean herbicidal activity (phytotoxicity) data is reported.
# (§10) For compounds A34, A98, A99, A87, A100, A101, A89, A120, A120A, A120B, A23, A127, A128, A89, A112 and A113 the tested weeds were as follows: Avena fatua (AVEFA), Lolium multiflorum (LOLMU), Setaria viridis (SETVI), Poa annua (POAAN), Alopecurus myosuroides (ALOMY). All five of these are grassy monocotyledonous weeds. Except for SETVI, these are all “cool-season” grassy monocotyledonous weeds.
# [1] = system: Lolium multiflorum (LOLMU); assay: as above; details: 14 DAA
# Procedure: as §1, §2, §3, §4, §5, §6, §7, §8, §9, §10
# Avena fatua (AVEFA) = assay: as above; details: 14 DAA
# Procedure: as §1, §2, §3, §4, §5, §6, §7, §8, §9, §10
# Poa annua (POAAN) = assay: as above; details: 14 DAA
# Procedure: as §1, §2, §3, §4, §5, §6, §7, §8, §9, §10
# [2] = system: Alopecurus myosuroides (ALOMY); assay: as above; details: 14 DAA
# Procedure: as §1, §2, §3, §4, §5, §6, §7, §8, §9, §10
# Winter Barley “Suzuka” = assay: Test 1B glasshouse assay, post-emergence herbicidal activity against cereal crops
# Procedure: as §1, §2, §3, §4, §5, §6, §7, §8, §9
# [3] = system: Spring Barley “Harrington”; assay: as above
# Procedure: as §1, §2, §3, §4, §5, §6, §7, §8, §9
# Winter Wheat “Hereward” = assay: as above
# Procedure: as §1, §2, §3, §4, §5, §6, §7, §8, §9
# [4] = 30 g/ha herbicide, 50 g/ha cloquintocet-mexyl
# [5] = 45 g/ha herbicide, 50 g/ha cloquintocet-mexyl
# [6] = 60 g/ha herbicide, 0 g/ha cloquintocet-mexyl
# [7] = 60 g/ha herbicide, 50 g/ha cloquintocet-mexyl
# [8] = herbicide 30 g/ha, cloquintocet-mexyl 50 g/ha
# [9] = herbicide 45 g/ha, cloquintocet-mexyl 50 g/ha
# [10] = herbicide 60 g/ha, cloquintocet-mexyl 0 g/ha
# [11] = herbicide 60 g/ha, cloquintocet-mexyl 50 g/ha
Structure (SMILES),"Post-emergence herbicidal activity, percentage phytotoxicity, SETVI (Setaria viridis (SETVI); [4])","Post-emergence herbicidal activity, percentage phytotoxicity, SETVI (Setaria viridis (SETVI); [5])","Post-emergence herbicidal activity, percentage phytotoxicity, SETVI (Setaria viridis (SETVI); [6])","Post-emergence herbicidal activity, percentage phytotoxicity, SETVI (Setaria viridis (SETVI); [7])","Post-emergence herbicidal activity, percentage phytotoxicity, LOLMU [1, 4]","Post-emergence herbicidal activity, percentage phytotoxicity, LOLMU [1, 5]","Post-emergence herbicidal activity, percentage phytotoxicity, LOLMU [1, 6]","Post-emergence herbicidal activity, percentage phytotoxicity, LOLMU [1, 7]","Post-emergence herbicidal activity, percentage phytotoxicity, AVEFA (Avena fatua (AVEFA); [4])","Post-emergence herbicidal activity, percentage phytotoxicity, AVEFA (Avena fatua (AVEFA); [5])","Post-emergence herbicidal activity, percentage phytotoxicity, AVEFA (Avena fatua (AVEFA); [6])","Post-emergence herbicidal activity, percentage phytotoxicity, AVEFA (Avena fatua (AVEFA); [7])","Post-emergence herbicidal activity, percentage phytotoxicity, POAAN (Poa annua (POAAN); [4])","Post-emergence herbicidal activity, percentage phytotoxicity, POAAN (Poa annua (POAAN); [5])","Post-emergence herbicidal activity, percentage phytotoxicity, POAAN (Poa annua (POAAN); [6])","Post-emergence herbicidal activity, percentage phytotoxicity, POAAN (Poa annua (POAAN); [7])","Post-emergence herbicidal activity, percentage phytotoxicity, ALOMY [2, 4]","Post-emergence herbicidal activity, percentage phytotoxicity, ALOMY [2, 5]","Post-emergence herbicidal activity, percentage phytotoxicity, ALOMY [2, 6]","Post-emergence herbicidal activity, percentage phytotoxicity, ALOMY [2, 7]",other results
Cc1cc(C)c(C2C(=O)C[C@H](CCNC(=O)c3ccc(Br)cn3)C2=O)c(C)c1 (stereo partly shown) [Compound A120B],40%,65%,68%,68%,58%,73%,83%,73%,3%,10%,38%,48%,0%,0%,4%,4%,43%,58%,73%,70%,"Percentage Phytotoxicity Winter Barley “Suzuka” (Winter Barley “Suzuka”; [8]): 3%; Percentage Phytotoxicity Winter Barley “Suzuka” (Winter Barley “Suzuka”; [9]): 9%; Percentage Phytotoxicity Winter Barley “Suzuka” (Winter Barley “Suzuka”; [10]): 75%; Percentage Phytotoxicity Winter Barley “Suzuka” (Winter Barley “Suzuka”; [11]): 13%; Percentage Phytotoxicity Spring Barley “Harrington” [3, 8]: 3%; Percentage Phytotoxicity Spring Barley “Harrington” [3, 9]: 10%; Percentage Phytotoxicity Spring Barley “Harrington” [3, 10]: 53%; Percentage Phytotoxicity Spring Barley “Harrington” [3, 11]: 23%; Percentage Phytotoxicity Winter Wheat “Hereward” (Winter Wheat “Hereward”; [8]): 7%; Percentage Phytotoxicity Winter Wheat “Hereward” (Winter Wheat “Hereward”; [9]): 10%; Percentage Phytotoxicity Winter Wheat “Hereward” (Winter Wheat “Hereward”; [10]): 58%; Percentage Phytotoxicity Winter Wheat “Hereward” (Winter Wheat “Hereward”; [11]): 13%"
Cc1cc(C)c(C2C(=O)C[C@@H](CCNC(=O)c3ccc(Br)cn3)C2=O)c(C)c1 (stereo partly shown) [Compound A120A],100%,100%,100%,100%,97%,100%,100%,100%,90%,95%,97%,97%,3%,5%,30%,10%,80%,88%,95%,90%,"Percentage Phytotoxicity Winter Barley “Suzuka” (Winter Barley “Suzuka”; [8]): 23%; Percentage Phytotoxicity Winter Barley “Suzuka” (Winter Barley “Suzuka”; [9]): 75%; Percentage Phytotoxicity Winter Barley “Suzuka” (Winter Barley “Suzuka”; [10]): 93%; Percentage Phytotoxicity Winter Barley “Suzuka” (Winter Barley “Suzuka”; [11]): 83%; Percentage Phytotoxicity Spring Barley “Harrington” [3, 8]: 30%; Percentage Phytotoxicity Spring Barley “Harrington” [3, 9]: 60%; Percentage Phytotoxicity Spring Barley “Harrington” [3, 10]: 85%; Percentage Phytotoxicity Spring Barley “Harrington” [3, 11]: 73%; Percentage Phytotoxicity Winter Wheat “Hereward” (Winter Wheat “Hereward”; [8]): 53%; Percentage Phytotoxicity Winter Wheat “Hereward” (Winter Wheat “Hereward”; [9]): 60%; Percentage Phytotoxicity Winter Wheat “Hereward” (Winter Wheat “Hereward”; [10]): 73%; Percentage Phytotoxicity Winter Wheat “Hereward” (Winter Wheat “Hereward”; [11]): 65%"
